In patent US4058665A, “Novel 3,15-dilower alkyl PGE2 derivatives” (Yamanouchi Pharmaceutical Co., Ltd., priority 1975, dated 1977):

Assays:
male Sprague-Dawly rats = assay: antiulcer activity, pylorus-ligated fasted rats, samples given by gastric tube, stomach inspected for ulcers 21 hours later; assay type: in vivo, Sprague-Dawly rat; settings: for ED50: Rattus norvegicus, po, pylorus-ligated rats, 21 hours, figures in parenthesis indicate confidence limit; for b)/a) (ED50 diarrhea / ED50 antiulcer): ratio of diarrhea ED50 to antiulcer ED50, p.o., rats
Procedure: Each of ten male Sprague-Dawly rate, 12 weeks old, in one group was isolated in a cage with a large mesh wire net at the bottom during experimental period and prevented from coprophagia. During this period the animals were completely fasted for 48 hours and water was provided only for 32 hours from the beginning. The animal was anesthetized with ether, the pylorus was ligated through a short midline incision. The samples were administered with a gastric tube immediately after the ligation. The animals were sacrificed 21 hours later with chloroform and their abdomens were widely opened to take out the stomach. The stomach was opened for inspection of ulcers.

[1] = diarrhea activity, fasted rats, samples given by gastric tube, occurrence of diarrhea observed in the following 24 hours; parameters: species or system Sprague-Dawly rat; settings: rat, in vivo, po, observed 24 hours, figures in parenthesis indicate confidence limit, read-out: ED50 diarrhea activity
Procedure: Each of five male Sprague-Dawly rats, 12 weeks old, in one group was fasted for 24 hours.

[2] = Prostaglandins, 5, (5) 455-463 (1974); cited from earlier work
[3] = in vivo; cited from earlier work

Compound	ED50 (male Sprague-Dawly rats) [mg/kg]	b)/a) (ED50 diarrhea / ED50 antiulcer) (male Sprague-Dawly rats)	TD50 at 24 h [1] [mg/kg]	anti-ulcer activity, in words [2]	diarrhea as a side effect, in words [3]
CCCCC[C@](C)(O)/C=C/[C@H]1[C@H](O)CC(=O)[C@@H]1C/C=C\CCCC(=O)OC [B, 11α, 15(S)-dihydroxy-15-methyl-9-oxo-5(cis),13(trans)-prostadienoic acid methyl ester]	0.06	0.8	0.047		
CCCCC[C@@](C)(O)/C=C/[C@H]1[C@H](O)CC(=O)[C@@H]1C/C=C\CCCC(=O)OC [A, 11α, 15(R)-dihydroxy-15-methyl-9-oxo-5(cis),13(trans)-prostadienoic acid methyl ester]	0.098	1.2	0.12	strong anti-ulcer activity	very severe diarrhea
CCCCC[C@@](C)(O)/C=C/[C@H]1[C@H](O)CC(=O)[C@@H]1C/C=C\CC(C)CC(=O)OC (stereo partly drawn) [Compound C, 11α, 15(R)-dihydroxy-3,15-dimethyl-9-oxo-5(cis), 13(trans)-prostadienoic acid methyl ester]	0.2	6.0	1.2		
